Experimental data as given in US11447466B2, “Substituted indole compounds useful as inhibitors of TLR7/8/9” (BRISTOL-MYERS SQUIBB COMPANY, priority 2017, dated 2022).
pIC50: −log10 of the molar value.

Tests used:
Assay type in all cases: cell-based
[1] = molecular target: T1, human TLR9 (Homo sapiens, UniProt Q9NR96); assay: TLR9 inhibition reporter assay (HEK-Blue SEAP reporter, ODN2006 stimulation); details: HEK-Blue cells overexpressing human TLR9, SEAP reporter, ODN2006 5 nM, 22 hour incubation
T1 construct: host or cells: HEK-Blue cells
T1 sequence (Q9NR96 26-1032): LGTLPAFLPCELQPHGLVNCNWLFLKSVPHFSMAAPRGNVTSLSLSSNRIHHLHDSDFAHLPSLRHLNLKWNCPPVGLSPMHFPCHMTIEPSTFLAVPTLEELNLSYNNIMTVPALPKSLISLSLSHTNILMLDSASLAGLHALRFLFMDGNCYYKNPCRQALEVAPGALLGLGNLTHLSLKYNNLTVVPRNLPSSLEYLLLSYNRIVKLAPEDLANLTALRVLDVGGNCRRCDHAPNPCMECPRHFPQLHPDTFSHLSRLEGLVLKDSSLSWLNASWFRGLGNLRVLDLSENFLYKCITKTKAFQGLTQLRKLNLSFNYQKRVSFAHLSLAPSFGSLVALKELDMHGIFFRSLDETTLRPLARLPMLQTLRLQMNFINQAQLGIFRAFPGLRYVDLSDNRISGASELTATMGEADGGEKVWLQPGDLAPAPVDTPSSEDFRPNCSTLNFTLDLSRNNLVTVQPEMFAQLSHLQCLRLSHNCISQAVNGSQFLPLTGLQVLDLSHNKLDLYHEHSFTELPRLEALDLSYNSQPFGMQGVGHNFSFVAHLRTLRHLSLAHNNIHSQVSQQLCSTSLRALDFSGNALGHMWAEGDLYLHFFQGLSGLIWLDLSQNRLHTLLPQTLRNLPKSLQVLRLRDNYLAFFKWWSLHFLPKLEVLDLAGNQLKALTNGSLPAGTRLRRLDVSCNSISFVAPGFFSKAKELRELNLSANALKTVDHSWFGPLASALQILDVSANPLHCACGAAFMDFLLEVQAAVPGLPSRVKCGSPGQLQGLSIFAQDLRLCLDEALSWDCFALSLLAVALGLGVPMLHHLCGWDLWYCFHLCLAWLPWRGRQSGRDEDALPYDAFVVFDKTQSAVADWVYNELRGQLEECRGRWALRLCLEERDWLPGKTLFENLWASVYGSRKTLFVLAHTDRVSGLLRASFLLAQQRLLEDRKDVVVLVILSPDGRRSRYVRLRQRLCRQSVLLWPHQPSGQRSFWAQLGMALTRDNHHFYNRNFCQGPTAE
In short: (§1)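 Compound treatment: 30 min, RT, 0.05 nM–50 μM final. Agonist: TLR7 gardiquimod 7.5 μM; TLR8 R848 15.9 μM; TLR9 ODN2006 5 nM. Incubation 22 h, 37 °C, 5% CO2. Readout SEAP, HEK-Blue Detection.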

[2] = molecular target: T2, human TLR7 (Homo sapiens, UniProt Q9NYK1); assay: TLR7 inhibition reporter assay (HEK-Blue SEAP reporter, gardiquimod stimulation); details: HEK-Blue cells overexpressing human TLR7, SEAP reporter, gardiquimod 7.5 μM, 22 hour incubation
T2 construct: host or cells: HEK-Blue cells
T2 sequence (Q9NYK1 27-1049): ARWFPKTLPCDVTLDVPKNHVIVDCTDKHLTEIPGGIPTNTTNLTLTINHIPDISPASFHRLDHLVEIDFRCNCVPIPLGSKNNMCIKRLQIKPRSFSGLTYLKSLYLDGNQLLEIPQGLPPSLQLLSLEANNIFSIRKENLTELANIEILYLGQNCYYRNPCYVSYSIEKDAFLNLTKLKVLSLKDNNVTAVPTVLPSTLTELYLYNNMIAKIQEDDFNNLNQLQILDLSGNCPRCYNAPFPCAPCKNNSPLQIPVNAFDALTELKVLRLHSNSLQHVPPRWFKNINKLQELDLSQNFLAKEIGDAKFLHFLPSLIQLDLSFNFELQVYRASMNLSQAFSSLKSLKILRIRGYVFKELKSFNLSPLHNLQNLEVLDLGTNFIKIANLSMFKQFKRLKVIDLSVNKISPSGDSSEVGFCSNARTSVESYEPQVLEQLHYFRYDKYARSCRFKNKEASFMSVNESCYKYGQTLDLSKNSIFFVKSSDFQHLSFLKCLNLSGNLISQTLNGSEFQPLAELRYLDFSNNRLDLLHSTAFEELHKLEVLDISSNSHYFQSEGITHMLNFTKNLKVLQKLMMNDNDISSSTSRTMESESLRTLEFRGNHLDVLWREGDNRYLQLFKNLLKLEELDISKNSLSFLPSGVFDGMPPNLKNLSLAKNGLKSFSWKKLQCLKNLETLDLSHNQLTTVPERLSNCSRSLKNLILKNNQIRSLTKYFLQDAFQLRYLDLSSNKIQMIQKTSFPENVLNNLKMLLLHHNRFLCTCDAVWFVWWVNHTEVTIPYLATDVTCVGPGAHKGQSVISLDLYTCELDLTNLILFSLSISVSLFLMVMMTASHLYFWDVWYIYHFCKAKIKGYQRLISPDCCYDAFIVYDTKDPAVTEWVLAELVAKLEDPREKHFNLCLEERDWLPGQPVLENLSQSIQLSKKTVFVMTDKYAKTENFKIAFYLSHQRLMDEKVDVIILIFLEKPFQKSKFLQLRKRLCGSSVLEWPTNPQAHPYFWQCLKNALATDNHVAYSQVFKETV
In short: as §1

[3] = molecular target: T3, human TLR8 (Homo sapiens, UniProt Q9NR97); assay: TLR8 inhibition reporter assay (HEK-Blue SEAP reporter, R848 stimulation); details: HEK-Blue cells overexpressing human TLR8, SEAP reporter, R848 15.9 μM, 22 hour incubation
T3 construct: host or cells: HEK-Blue cells
T3 sequence (Q9NR97 27-1041): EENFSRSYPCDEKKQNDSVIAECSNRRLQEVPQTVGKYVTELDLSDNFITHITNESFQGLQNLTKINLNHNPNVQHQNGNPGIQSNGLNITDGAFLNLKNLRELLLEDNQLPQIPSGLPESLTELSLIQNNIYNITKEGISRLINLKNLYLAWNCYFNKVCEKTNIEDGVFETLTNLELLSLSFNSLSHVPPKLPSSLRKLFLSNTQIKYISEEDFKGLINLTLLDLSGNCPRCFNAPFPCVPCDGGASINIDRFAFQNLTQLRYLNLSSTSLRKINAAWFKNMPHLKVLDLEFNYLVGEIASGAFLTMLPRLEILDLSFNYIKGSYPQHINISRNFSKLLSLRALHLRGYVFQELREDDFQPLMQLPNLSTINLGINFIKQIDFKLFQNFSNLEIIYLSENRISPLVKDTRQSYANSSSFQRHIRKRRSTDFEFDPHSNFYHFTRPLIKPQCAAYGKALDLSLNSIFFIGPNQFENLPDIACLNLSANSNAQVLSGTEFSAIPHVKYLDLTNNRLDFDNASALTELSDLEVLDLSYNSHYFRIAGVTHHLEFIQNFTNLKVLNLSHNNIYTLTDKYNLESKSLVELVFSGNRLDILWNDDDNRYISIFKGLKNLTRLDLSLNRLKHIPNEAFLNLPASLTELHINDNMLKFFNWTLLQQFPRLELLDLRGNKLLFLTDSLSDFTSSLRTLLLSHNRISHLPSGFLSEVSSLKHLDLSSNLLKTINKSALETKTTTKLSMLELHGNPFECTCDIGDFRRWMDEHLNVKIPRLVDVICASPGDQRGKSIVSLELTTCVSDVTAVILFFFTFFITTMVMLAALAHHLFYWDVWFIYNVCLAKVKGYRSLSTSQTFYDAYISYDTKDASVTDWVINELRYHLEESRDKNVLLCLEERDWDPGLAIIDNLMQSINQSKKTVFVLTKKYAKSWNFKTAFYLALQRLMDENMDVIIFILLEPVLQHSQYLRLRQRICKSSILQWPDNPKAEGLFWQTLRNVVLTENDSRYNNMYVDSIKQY
In short: as §1

pIC50 [1] | pIC50 [2] | pIC50 [3] | SMILES
5.31 | 8.08 | 8.32 | CC(=O)N1CCC(c2ccc3[nH]c(-c4cn(C)c(=O)c(Cl)c4C)c(C(C)C)c3c2)CC1 [Example 241, 5-(5-(1-acetylpiperidin-4-yl)-3-isopropyl-1H-indol-2-yl)-3-chloro-1,4-dimethylpyridin-2(1H)-one]
5.49 | 8.28 | 7.68 | Cc1c(-c2[nH]c3ccc(C4CCN(C(=O)CN(C)C)CC4)cc3c2C(C)C)cn(C)c(=O)c1Cl [Example 278, 3-chloro-5-(5-(1-(dimethylglycyl)piperidin-4-yl)-3-isopropyl-1H-indol-2-yl)-1,4-dimethylpyridin-2(1H)-one]
6.24 | 7.89 | 7.88 | Cc1c(-c2[nH]c3ccc(C4CCNCC4)cc3c2C(C)C)ccc(=O)n1C [Example 6, 5-(3-isopropyl-5-(piperidin-4-yl)-1H-indol-2-yl)-1,6-dimethylpyridin-2(1H)-one]
5.49 | 8.15 | 7.65 | Cc1cc(-c2[nH]c3ccc(C4CCN(C5CCC(C(F)(F)F)CC5)CC4)cc3c2C(C)C)cn(C)c1=O (stereo not drawn) [Example 231, 5-(3-isopropyl-5-(1-(4-(trifluoromethyl)cyclohexyl)piperidin-4-yl)-1H-indol-2-yl)-1,3-dimethylpyridin-2(1H)-one]
6.49 | 7.94 | 7.58 | Cc1ncccc1-c1cc(-c2[nH]c3ccc(C4CCN(C(C)C)CC4)cc3c2C(C)C)cn(C)c1=O [Example 344, 5-(3-isopropyl-5-(1-isopropylpiperidin-4-yl)-1H-indol-2-yl)-1,2′-dimethyl-[3,3′-bipyridin]-2(1H)-one]
5.40 | 8.36 | 8.26 | CN[C@@H](C)C(=O)N1CCC(c2ccc3[nH]c(-c4cc(C)c(=O)n(C)c4)c(C(C)C)c3c2)CC1 [Example 297, 5-(3-isopropyl-5-(1-(methyl-L-alanyl)piperidin-4-yl)-1H-indol-2-yl)-1,3-dimethylpyridin-2(1H)-one]
4.98 | 8.42 | 8.15 | CC(C)c1c(-c2cc(Cl)c(=O)n(C)c2)[nH]c2ccc(C3CCN(C4CCOCC4)CC3)cc12 [Example 226, 3-chloro-5-(3-isopropyl-5-(1-(tetrahydro-2H-pyran-4-yl)piperidin-4-yl)-1H-indol-2-yl)-1-methylpyridin-2(1H)-one]
5.42 | 7.95 | 7.97 | Cc1cc(-c2[nH]c3ccc(C4CCN(CCCC(F)(F)F)CC4)cc3c2C(C)C)cn(C)c1=O [Example 79, 5-(3-isopropyl-5-(1-(4,4,4-trifluorobutyl)piperidin-4-yl)-1H-indol-2-yl)-1,3-dimethylpyridin-2(1H)-one]
6.01 | 8.52 | 8.24 | COc1cc(-c2[nH]c3ccc(C4CCN(CC(=O)N(C)C)CC4)cc3c2C(C)C)cn(C)c1=O [Example 128, 2-(4-(3-isopropyl-2-(5-methoxy-1-methyl-6-oxo-1,6-dihydropyridin-3-yl)-1H-indol-5-yl)piperidin-1-yl)-N,N-dimethylacetamide]
5.51 | 7.32 | 6.80 | Cc1cc(-c2[nH]c3ccc(C4CCN(CCCC(F)(F)F)CC4)cc3c2C(C)C)cn(Cc2ccccc2)c1=O [Example 111, 1-benzyl-5-(3-isopropyl-5-(1-(4,4,4-trifluorobutyl)piperidin-4-yl)-1H-indol-2-yl)-3-methylpyridin-2(1H)-one]
6.22 | 7.68 | 7.91 | Cc1c(-c2[nH]c3ccc(C4CCNCC4)cc3c2C(C)C)nn(C)c(=O)c1C [Example 17, 6-(3-isopropyl-5-(piperidin-4-yl)-1H-indol-2-yl)-2,4,5-trimethylpyridazin-3(2H)-one]
5.69 | 8.10 | 8.89 | CC(C)c1c(-c2cc(-c3cncnc3)c(=O)n(C)c2)[nH]c2ccc(C3CCN(CC4COC4)CC3)cc12 [Example 94, 5-(3-isopropyl-5-(1-(oxetan-3-ylmethyl)piperidin-4-yl)-1H-indol-2-yl)-1-methyl-3-(pyrimidin-5-yl)pyridin-2(1H)-one]
5.89 | 4.86 | ≤ 4.30 | CC(C)c1c(-c2ccc(=O)n(CC(C)(C)O)c2)[nH]c2ccc(C3CCNCC3)cc12 [Example 48, 1-(2-hydroxy-2-methylpropyl)-5-(3-isopropyl-5-(piperidin-4-yl)-1H-indol-2-yl)pyridin-2(1H)-one]
6.04 | 7.79 | 7.90 | Cc1c(-c2[nH]c3ccc(C4CCNCC4)cc3c2C(C)C)cc(Cl)c(=O)n1C [Example 33, 3-chloro-5-(3-isopropyl-5-(piperidin-4-yl)-1H-indol-2-yl)-1,6-dimethylpyridin-2(1H)-one]
